Reference: patent US6229016A, “Method for treating tumors using 2-aryl-naphthyridin-4-ones” (priority 2000, dated 2001)

Tests used:
Format in all cases: cell-based
[1] = system: NCI's 60 human tumor cell line; experiment: NCI 60 human tumor cell line in vitro screen (average / whole panel); details: calculated from all cell lines tested, molar concentrations, read-out: average log GI50 (converted)
[2] = system: HL-60(TB) leukemia cell line; experiment: cells; details: Homo sapiens; HL-60(TB); read-out: Cytotoxicity log GI50 (converted)
[3] = system: NCI-H460 non-small cell lung cancer cell line; experiment: NCI in vitro screen, non-small cell lung cancer NCI-H460; details: Homo sapiens, read-out: Cytotoxicity log GI50 (converted)
[4] = system: HCT-116 colon cancer cell line; experiment: NCI in vitro screen, colon cancer HCT-116; details: Homo sapiens; HCT-1.16 (head); HCT-116 (footnote); read-out: Cytotoxicity log GI50 (converted)
[5] = system: SF-295 CNS cancer cell line; experiment: NCI in vitro screen, CNS cancer SF-295; details: Homo sapiens, read-out: Cytotoxicity log GI50 (converted)
[6] = system: U-251 CNS cancer cell line; experiment: NCI in vitro screen, CNS cancer U-251; details: Homo sapiens, read-out: Cytotoxicity log GI50 (converted)
[7] = system: SK-MEL-5 melanoma cell line; experiment: NCI in vitro screen, melanoma SK-MEL-5; details: Homo sapiens, read-out: Cytotoxicity log GI50 (converted)
Text: (§1) Compounds 41-51 and 53-68 were submitted to NCI and assayed in the NCI's in vitro disease-oriented antitumor screen, which involves determination of a test compound's effects on the growth of approximately 60 human tumor cell lines. See, M. R. Boyd, et al. In Cancer: Principles and Practice of Oncology Updates; De Vita, V. T., Hellman, S., Rosenberg, S. A., Eds; J. B. Lippincoft: Philadelphia, pp 1-12 (1989); and A. Monks, et al. J. Natl. Cancer Inst. 83:757 (1991). These lines include leukemia, non-small cell lung, colon, central nervous system (CNS), melanoma, ovarian, renal, prostate, and breast cancers.
(§2) Compounds 29'-51' were submitted to NCI and assayed in the NCI's in vitro disease-oriented antitumor screen, using the techniques described in Example 5. This assay involves determinations of a test agent's effect on growth parameters against a panel of approximately 60 human tumor cell lines, derived largely from solid tumors, including non-small cell lung, colon, central nervous system, renal, ovarian, prostate, and breast cancers, plus a few leukemia cell lines. The cytotoxic effects of each compound are obtained as GI50 or […] values, which represent the molar drug concentrations required to cause half growth inhibition and total growth inhibition, respectively. The results are expressed for each cell line as average log GI50 values in Table 4, as log GI50 values in Table 5, and as log TGI values and average log TGI values in Table 6.

[8] = system: OVCAR-3 ovarian cancer cell line; experiment: NCI in vitro screen, ovarian cancer OVCAR-3; details: Homo sapiens, read-out: Cytotoxicity log GI50 (converted)
[9] = system: 786-0 renal cancer cell line; experiment: NCI in vitro screen, renal cancer 786-0; details: Homo sapiens, read-out: Cytotoxicity log GI50 (converted)
Text: as §1, §2

[10] = system: PC-3 prostate cancer cell line; experiment: NCI in vitro screen, prostate cancer PC-3; details: Homo sapiens, read-out: Cytotoxicity log GI50 (converted)
Text: as §1, §2

[11] = system: MDA-MB-435 breast cancer cell line; experiment: NCI in vitro screen, breast cancer MDA-MB-435; details: Homo sapiens, read-out: Cytotoxicity log GI50 (converted)
[12] = system: MDA-N breast cancer cell line; experiment: NCI in vitro screen, breast cancer MDA-N; details: Homo sapiens, read-out: Cytotoxicity log GI50 (converted)
Text: as §1, §2

Row | SMILES | GI50 [1] [nM] | GI50 [2] [nM] | GI50 [3] [nM] | GI50 [4] [nM] | GI50 [5] [nM] | GI50 [6] [nM] | GI50 [7] [nM] | GI50 [8] [nM] | GI50 [9] [nM] | GI50 [10] [nM] | GI50 [11] [nM] | GI50 [12] [nM]
1 | COc1ccccc1-c1cc(=O)c2ccc(C)nc2[nH]1 [Compound 42] | 79400 | 74100 | 97700 | 38000 | > 100000 | > 100000 | 51300 | > 100000 | > 100000 | > 100000 | 21900 | 20000
2 | O=c1cc(-c2cccc(Cl)c2)[nH]c2ncccc12 [32'] | 229 | 10.5 | 87.1 | 28.8 | 63.1 | 145 | 52.5 | 45.7 | 56.2 | 22.4 | < 10 | 17.4
3 | Cc1cccc(C2=Nc3nc(C)cc(C)c3C(=O)C2)c1 [Compound 41, 2-(3'-Methylphenyl)-5,7-dimethyl-1,8-naphthyridin-4-one] | – | 12900 | 44700 | 17800 | 64600 | 53700 | 34700 | 30200 | 56200 | 31600 | 20000 | 20900
4 | COc1ccccc1-c1cc(=O)c2cccnc2[nH]1 [Compound 39] | 40700 | 38900 | 38900 | 27500 | 23400 | 67600 | 31600 | 47900 | 36300 | 29500 | 39800 | 20000
5 | Cc1cccc(-c2cc(=O)c3c(C)ccnc3[nH]2)c1 [38'] | 57.5 | 18.2 | 36.3 | 46.8 | 30.2 | 53.7 | 33.9 | 22.4 | 53.7 | 33.1 | < 10 | 11
6 | COc1ccc(-c2cc(=O)c3cccnc3[nH]2)cc1 [Compound 51] | 38000 | 12900 | 26300 | 17800 | 64600 | 53700 | 34700 | 30200 | 56200 | 31600 | 20000 | 20900
7 | Cc1ccnc2[nH]c(-c3cccc(Cl)c3)cc(=O)c12 [33'] | 158 | 10 | 38.9 | 15.8 | 40.7 | 52.5 | 41.7 | 31.6 | 33.1 | 15500 | < 10 | 11.7
8 | Cc1cnc2[nH]c(-c3cccc(F)c3)cc(=O)c2c1 [29'] | 50.1 | 20.4 | 38.9 | 24 | 27.5 | 40.7 | 28.2 | 13.5 | 28.2 | 34.7 | < 10 | 11.7
9 | O=C1CC(c2cccc3ccccc23)=Nc2ncccc21 [Compound 42, 2-(α-Naphthyl)-1,8-naphthyridin-4-one] | – | < 10 | 38.9 | < 10 | < 10 | 10.2 | < 10 | < 10 | 15.1 | 17.8 | < 10 | < 10
10 | Cc1cccc(C2=Nc3ncc(C)cc3C(=O)C2)c1 [Compound 39, 2-(3'-Methylphenyl)-6-methyl-1,8-naphthyridin-4-one] | 646 | 174 | – | 407 | 417 | 170 | 288 | 251 | 437 | 309 | < 10 | < 10
